Test results as given in patent US20160075667A1, “COMPOSITIONS AND METHODS FOR CHEMICAL EXCHANGE SATURATION TRANSFER (CEST) MAGNETIC RESONANCE IMAGING (MRI)” (The Johns Hopkins University, priority 2013, published 2016).

Experiment: Phantom calibration: CEST MTRasym spectra of I45DC-(Glu)2 in PBS
Type: physicochemical
Conditions: pH 5.4 to 7.5
Protocol: I45DC-(Glu)2 was dissolved in PBS with conc. of 50 mM, 25 mM, 12 mM and 6.25 mM and pH from 5.4 to 7.5.
Images were taken on Bruker 11.7T scanners, using a RARE sequence with CW saturation pulse of B1=5.9 uT, Tsat=3 s. For phantoms, saturation frequency incremented every 0.3 ppm from −15 to 15 ppm with TR/TE=6000 ms/17 ms, matrix size=64×48. For in vivo, an axial slice across both kidney carlyx was chosen with thickness of 1.5 mm CEST images with saturation frequencies of [±7.8 ppm, ±7.5 ppm, ±7.2 ppm] and [±4.8 ppm, ±4.5 ppm, ±4.2 ppm] for pH reference were acquired repeatedly every 10 min pre- and post-injection. Image parameters are similar as for phantom except for TR/TE=5 s/15 ms, and CEST contrast was quantified by
MTRasym=(S−Δω−S+Δω)/S−Δω.
CEST MTRasym spectra of I45DC-(Glu)2 (FIG. 5A) show 2 broad peaks centered at 7.5 ppm and 2.4 ppm, with the 7.5 ppm peak increasing as pH increases, while the 2.5 ppm-5 ppm part remains relatively constant. […] The linearity of the ratio using saturation B1=5.9 uT is better than B1=3.6 uT partially due to a relative fast exchange rate of the heterocyclic NH (kex=˜4000).

O=C[C@H](CCC(=O)O)NNC(=O)c1nc[nH]c1C(=O)NN[C@H](C=O)CCC(=O)O [I45DC-(Glu)2, 4,5-bis[(Glu)carbonyl]-1H-imidazole]
ratio of the 7.5 ppm contrast to contrast at 4.8 ppm (6.25-50 mM): dependent on pH
exchange rate of the heterocyclic NH (kex): ~4000
